Source: patent publication US6835370B2, “Diagnosis and treatment of malignant neoplasms” (Rhode Island Hospital, priority 1999, dated 2004)

Assays:
human AAH cDNA (pHAAH) = assay: in vitro cell free transcription translation assay (TNT Quick Coupled System); format: biochemical; conditions: 100× or 1000× excess oligonucleotide; rabbit reticulocyte lysate, [35S] methionine, SDS-PAGE autoradiography
Method: Using an in vitro cell free transcription translation assay (TNT Quick Coupled System), the human AAH cDNA (pHAAH) was used to synthesize AAH protein. […] The translated product was labeled with [^35S] methionine in the presence of reaction buffer, RNA polymerase, amino acid mixture, and ribonuclease inhibitor (RNAsin). The products were analyzed by SDS-PAGE followed by autoradiography. A luciferase (Luc) expressing plasmid was used as a positive control. In the second and third lanes, synthesis of the ˜85 kD AAH protein is shown (AAH, arrow) using 1 or 2 micrograms of plasmid as the template and the T7 DNA-dependent RNA polymerase primer/promoter to generate mRNA.

AAH = assay: MICE assay of AAH immunoreactivity in transfected cells; format: cell-based; conditions: relative to cells transfected with random oligonucleotide
Method: Inhibition of HAAH gene expression is enhanced by contacting cells with a phosphorothioate derivative of the HAAH antisense. Phosphorothioate antisense derivatives are made using methods well known in the art. The MILQ assay was used to measure gene expression resulting from antisense oligonucleotide gene delivery. Cells were contacted with AAH Location-6 antisense DNA, and AAH protein expression was measured using methods known in the art, e.g., the MICE assay (de la Monte, et al, 1999, Biotechniques), to determine if it was inhibited by hybridization with the oligonucleotide. The MICE assay is used to measure inimunoreactivity in cultured cells without the need to extract proteins or perform gel electrophoresis. This assay is more sensitive than Western blot analysis. Using the MICE assay, AAH immunoreactivity was assessed in cells transfected with non-relevant (random) oligonucleotide sequences, specific antisense oligonucleotides (Location-6), and a phosphorothioate Location-6 antisense oligonucleotide.

AAH in PNET2 cells = assay: Western blot of AAH expression in treated PNET2 cells; format: cell-based, Human
Method: Studies were conducted to determine whether AAH expression was modulated with neurite (filopodia) extension (sprouting) as occurs with invasive growth of malignant neoplasms. Human PNET2 CNS-derived and SH-Sy5y neuroblastoma cells were cultured and stimulated for 0, 1, 2, 3, 5, or 7 days with 100 nM phorbol […] or 10 μM retinoic acid to induce sprouting. […] For both studies, AAH expression was evaluated by Western blot analysis using the an HAAH-specific antibody.
(§1) Cells grown in 10 cm^2 dishes were lysed and homogenized in a standard radioimmunoprecipitation assay RIPA buffer containing protease and phosphatase inhibitors. The supernatants collected after centrifuging the samples at 12,000×g for 10 minutes to remove insoluble debris were used for Western blot analysis. Protein concentration was measured using the BCA assay (Pierce Chemical Co, Rockford, Ill.). Samples containing 60 μg of protein were electrophoresed in sodium dodecyl sulfate polyacrylamide gels (SDS-PAGE) and subjected to Western blot analysis. Replicate blots were probed with the individual antibodies. Immunoreactivity was detected with horseradish peroxidase conjugated IgG (Pierce Chemical Co, Rockford, Ill.) and enhanced chemiluminescence reagents. To quantify the levels of protein expression, non-saturated autoradiographs were subjected to volume densitometry using NIH Image software, version 1.6. […]

PNET2 cells = assay: Trypan blue dye exclusion viability; format: cell-based, Human; conditions: 24 hours, sub-lethal concentrations of H2O2
Method: FIGS. 5A-D are bar graphs showing increased AAH expression in PNET2 (FIGS. 5A, 5C) and SH-Sy5y (FIG. 5B) cells treated with retinoic acid (FIGS. 5A, 5B) or phorbol ester myristate (PMA; FIG. 5C) to induce neurite outgrowth as occurs during tumor cell invasion. The cells were treated with 10 μM retinoic acid or 100 nM PMA for 0, 1, 2, 3, 4, or 7 days. Cell lysates were analyzed by Western blot analysis using an HAAH-specific monoclonal antibody to detect the 85 kDa AAH protein. The levels of immunoreactivity were measured by volume densitometry (arbitrary units). The graphs indicate the mean±S.D. of results obtained from three separate experiments. In FIG. 5D, PNET2 cells were treated for 24 hours with sub-lethal concentrations of H2O2 to induce neurite retraction. […] Similar results were obtained for SH-Sy5y cells.
To examine the effect of AAH expression on neurite retraction, PNET2 and SH-Sy5y cells were treated with low concentrations (8-40 μM) of H2O2.

AAH in SH-Sy5y cells = assay: Western blot of AAH expression in treated SH-Sy5y cells; format: cell-based, Human; conditions: up to 7 days, FIG. 5B
Method: Studies were conducted to determine whether AAH expression was modulated with neurite (filopodia) extension (sprouting) as occurs with invasive growth of malignant neoplasms. Human PNET2 CNS-derived and SH-Sy5y neuroblastoma cells were cultured and stimulated for 0, 1, 2, 3, 5, or 7 days with 100 nM phorbol […] or 10 μM retinoic acid to induce sprouting. In addition, to examine the effects of neurite retraction on AAH expression, subconfluent cultures were treated for 24 hours with low concentrations (10-40 μM) of H2O2. For both studies, AAH expression was evaluated by Western blot analysis using the an HAAH-specific antibody.
as §1, with “Samples containing 60 μg of protein were electrophoresed in sodium dodecyl sulfate polyacrylamide gels (SDS-PAGE) and subjected to Western blot analysis. Replicate blots were probed with the individual antibodies.” left out

HAAH gene expression = assay: insulin stimulation of HAAH gene expression in FOCUS HCC cells; format: cell-based, human; conditions: 20 and 40 U insulin, serum free medium, after 16 hr of serum starvation
Description: IRS-1 mediated signal transduction pathway is activated in 95% of human HCC tumors compared to the adjacent uninvolved liver tissue. HAAH is a downstream effector gene involved in this signal transduction pathway. […] A high level of HAAH protein is expressed in HCC and cholangiocarcinoma compared to normal hepatocytes and bile ducts.

With “5′ ATCATGCAATGGCCCAGCGTAA 3′ (sense ATCATGCAATGGCCCAGCGTAA; listed as DNA, chemistry not given here) [sense oligonucleotide, sense oligonucleotide beginning at Location-3, control]” the “inhibition of AAH protein synthesis” value (human AAH cDNA (pHAAH)) was “no effect”.
For “5′ TTACGCTGGGCCATTGCACG 3′ (antisense TTACGCTGGGCCATTGCACG; listed as DNA, chemistry not given here) [Location-6, AAH antisense oligonucleotide (20 mer)]”, the AAH immunoreactivity (AAH) was “reduced levels”.
`OO` [H2O2] was tested, and the “levels of AAH protein” value (AAH in PNET2 cells; 24 hours, 8-40 μM H2O2, FIG. 5D) was “dose-dependent reductions” and the “Viability of the cells” value (PNET2 cells) was “greater than 90%”.
For `CCCCCCCCCCCCCC(=O)O[C@@H]1[C@@H](C)[C@@]2(O)[C@@H](C=C(CO)C[C@]3(O)C(=O)C(C)=C[C@@H]23)[C@@H]2C(C)(C)[C@]12OC(C)=O` [PMA, phorbol ester myristate], the “increase in levels of AAH protein” value (AAH in PNET2 cells; 24 hours after exposure, 10 μM retinoic acid or 100 nM PMA) was “at least two-fold” and the “RA- or PMA-stimulated increases in AAH expression” value (AAH in SH-Sy5y cells) was “highest after 7 days of treatment”.
“Insulin: insulin used to stimulate FOCUS HCC cells” was tested, and the HAAH gene expression (HAAH gene expression) was “upregulation”.
